Assay results reported in patent US20210077370A1, “Use of compositions comprising dihydroxyacetone for the protection of skin or hair against infrared irradiation” (Merck Patent GmbH, priority 2019, published 2021).

Columns and labels:
MMP1 = MMP1 immunostaining on human skin explants after IR-A irradiation; type: cell-based
Procedure: (§1) The product tested is a solution of 2% DHA in water. This was done to avoid formulation effects of auxiliary ingredients.
(§2) Human skin explants were prepared on an abdominoplasty coming from a person (Fitzpatrick skin phototype II-Ill). The explants were kept in survival in BEM culture medium (BIO-EC's Explants Medium) at 37° C. in a humid, 5%-CO2 atmosphere.
(§3) On day 0 (D0), day 3 (D3) and day 4 (D4; 3 hours before IR irradiation), day 5 (D5) and day 6 (D6), the product was applied topically followed by 10 minutes of drying. […] The culture medium was half renewed (1 ml/well) on day 3 and day 5. Irradiation of the explants were done using an infrared lamp (Dr FISCHER 1000 W, 235V, 2500K, 760-3000 nm), for 5040 s (720 J/cm^2). Water filter and IR760 filter were also used to have the following IR range of 700 nm to 1150 nm. The unirradiated batches were kept in HBSS (Hank's Balanced Saline Solution) in the dark. At the end of the irradiation, all the explants were put back in 2 ml of fresh BEM culture medium.
(§4) The explants temperature was measured before and after IR-A irradiation. To avoid temperature-driven side-effects, the explants temperature was maintained at 37° C. (max. 39° C.) by specially adapted refreshing system.
The immunostaining was performed using an automated slide processing system (Autostainer, Dako) and assessed by microscopical observation.

tropoelastin = experiment: Tropoelastin immunostaining on human skin explants after IR-A irradiation; type: cell-based; conditions: papillary dermis
Procedure: as §1, §2, §3, §4
The nuclei were counterstained by propidium iodide.
The immunostaining was assessed by microscopical observation.

## O=C(CO)CO [DHA, 1,3-dihydroxy-2-propanone]
MMP1; epidermis, IR-A irradiated, day 5, p<0.01
  MMP-1 decrease versus irradiated blank, epidermis: 65%
MMP1; living epidermis, IR-A irradiated explant + product applied topically, day 5
  MMP1 in the epidermis (% surface): 8.4 % surface
tropoelastin; day 7
  protection of the explants after irradiation to IR-A (tropoelastin): excellent protection
tropoelastin; day 7, statistically not different (p>0.1)
  Tropoelastin levels after IR-A irradiation and DHA treatment versus blank untreated explant: comparable to those of blank untreated explant
